# Target: T1, MMP-9 (Homo sapiens, UniProt P14780)
# T1 construct: gene MMP9; Purified recombinant human MMP-9 protein with a His-tag (catalog number 10327-H08H)
# Test: SPR (Biacore […], MMP-9 immobilized by amine coupling)
# Assay type: binding
# T1 sequence (P14780 107-707): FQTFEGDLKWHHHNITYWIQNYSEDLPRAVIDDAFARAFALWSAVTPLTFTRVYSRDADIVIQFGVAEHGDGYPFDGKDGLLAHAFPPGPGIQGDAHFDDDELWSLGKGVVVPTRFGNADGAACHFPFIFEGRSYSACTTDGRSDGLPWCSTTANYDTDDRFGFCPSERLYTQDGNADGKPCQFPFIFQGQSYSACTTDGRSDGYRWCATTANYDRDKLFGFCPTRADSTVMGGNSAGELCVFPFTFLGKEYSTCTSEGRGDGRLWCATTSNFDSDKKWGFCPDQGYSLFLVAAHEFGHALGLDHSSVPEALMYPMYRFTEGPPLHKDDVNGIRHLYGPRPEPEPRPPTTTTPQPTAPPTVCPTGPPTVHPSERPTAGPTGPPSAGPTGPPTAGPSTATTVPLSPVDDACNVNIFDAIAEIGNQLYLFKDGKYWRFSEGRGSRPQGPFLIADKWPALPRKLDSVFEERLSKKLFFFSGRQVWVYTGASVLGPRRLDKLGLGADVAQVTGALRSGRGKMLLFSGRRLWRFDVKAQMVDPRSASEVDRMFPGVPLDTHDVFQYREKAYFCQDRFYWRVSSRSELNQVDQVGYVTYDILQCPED
row,Structure (SMILES),Kd [µM]
1,"COc1cc2c(cc1O)-c1c(OC)c(O)cc3c1[C@H](C2)NCC3 [compound 9, laetanine]",21.6
2,"COc1cc(O)c2c(=O)cc(-c3ccc(O)cc3)oc2c1 [compound 10, genkwanin]",0.614

# From paper PMC9030947, “Identification of Novel Natural Product Inhibitors against Matrix Metalloproteinase 9 Using Quantum Mechanical Fragment Molecular Orbital-Based Virtual Screening Methods” (International Journal of Molecular Sciences, 2022)
